Measured values: patent US11331369B2, “Endoparasitic depsipeptides” (Zoetis Services LLC, priority 2017, dated 2022)

Legend:
Assay type in all cases: cell-based
[1] = system: 4th stage larvae (L4) of Dirofilaria immitis; experiment: Dirofilaria immitis, L4 Stage (DiL4) In Vitro Assay; settings: Dirofilaria immitis, 72 h, read-out: DiL4 Minimum Effective Dose (MED), approximately 72 hours incubation; L4 larvae assessed for survival or paralysis
[2] = system: third stage larvae of Haemonchus contortus; experiment: Haemonchus contortus L3 (HcL3) Assay; settings: 96 h, read-out: HcL3 Minimum Effective Dose (MED)
[3] = system: microfilariae of Dirofilaria immitis; experiment: Dirofilaria immitis, Microfilaria (DiMF) In vitro Assay; settings: 72 h, read-out: DiMF Minimum Effective Dose (MED), approximately 72 hours incubation, microfilariae assessed for survival or paralysis

SMILES	minimal effective concentration [1]	minimal effective concentration [2]	minimal effective concentration [3]
CCc1cc(C)n(Cc2ccc(C[C@H]3OC(=O)[C@H](CC(C)C)N(C)C(=O)[C@@H](C)OC(=O)[C@H](CC(C)C)N(C)C(=O)[C@@H](Cc4ccc(Cn5nc(C)cc5CC)cc4)OC(=O)[C@H](CC(C)C)N(C)C(=O)[C@@H](C)OC(=O)[C@H](CC(C)C)N(C)C3=O)cc2)n1 [Example 1b-186, (3S,6R,9S,12R,15S,18R,21S,24R)-6-(4-((5-ethyl-3-methyl-1H-pyrazol-1-yl)methyl)benzyl)-18-(4-((3-ethyl-5-methyl-1H-pyrazol-1-yl)methyl)benzyl)-3,9,15,21-tetraisobutyl-4,10,12,16,22,24-hexamethyl-1,7,13,19-tetraoxa-4,10,16,22-tetraazacyclotetracosan-2,5,8,11,14,17,20,23-octaone]	0.0001 to 0.001 µM	1 to 10 µM	0.01 to 0.1 µM
CCc1cc(C)nn1Cc1ccc(C[C@H]2OC(=O)[C@H](CC(C)C)N(C)C(=O)[C@@H](C)OC(=O)[C@H](CC(C)C)N(C)C(=O)[C@@H](Cc3ccc(Cn4nc(C)cc4CC)cc3)OC(=O)[C@H](CC(C)C)N(C)C(=O)[C@@H](C)OC(=O)[C@H](CC(C)C)N(C)C2=O)cc1 [Example 1b-187, (3S,6R,9S,12R,15S,18R,21S,24R)-6,18-bis(4-((5-ethyl-3-methyl-1H-pyrazol-1-yl)methyl)benzyl)-3,9,15,21-tetraisobutyl-4,10,12,16,22,24-hexamethyl-1,7,13,19-tetraoxa-4,10,16,22-tetraazacyclotetracosan-2,5,8,11,14,17,20,23-octaone]	0.001 to 0.01 µM	1 to 10 µM	0.01 to 0.1 µM
COc1ccc(-c2ccnn2Cc2ccc(C[C@H]3OC(=O)[C@H](CC(C)C)N(C)C(=O)[C@@H](C)OC(=O)[C@H](CC(C)C)N(C)C(=O)[C@@H](Cc4ccc(Cn5nccc5-c5ccc(OC)nc5)cc4)OC(=O)[C@H](CC(C)C)N(C)C(=O)[C@@H](C)OC(=O)[C@H](CC(C)C)N(C)C3=O)cc2)cn1 [Example 1b-190, (3S,6R,9S,12R,15S,18R,21S,24R)-3,9,15,21-tetraisobutyl-6,18-bis(4-((5-(6-methoxypyridin-3-yl)-1H-pyrazol-1-yl)methyl)benzyl)-4,10,12,16,22,24-hexamethyl-1,7,13,19-tetraoxa-4,10,16,22-tetraazacyclotetracosan-2,5,8,11,14,17,20,23-octaone]	0.0001 to 0.001 µM	1 to 10 µM	0.001 to 0.01 µM
CCOc1cnn(Cc2ccc(C[C@H]3OC(=O)[C@H](CC(C)C)N(C)C(=O)[C@@H](C)OC(=O)[C@H](CC(C)C)N(C)C(=O)[C@@H](Cc4ccc(Cn5ncc(OCC)c5C)cc4)OC(=O)[C@H](CC(C)C)N(C)C(=O)[C@@H](C)OC(=O)[C@H](CC(C)C)N(C)C3=O)cc2)c1C [Example 1b-197, (3S,6R,9S,12R,15S,18R,21S,24R)-6,18-bis[[4-[(4-ethoxy-5-methyl-pyrazol-1-yl)methyl]phenyl]methyl]-3,9,15,21-tetraisobutyl-4,10,12,16,22,24-hexamethyl-1,7,13,19-tetraoxa-4,10,16,22-tetrazacyclotetracosane-2,5,8,11,14,17,20,23-octaone]	0.001 to 0.01 µM	1 to 10 µM	0.001 to 0.01 µM
COCOc1cnn(Cc2ccc(C[C@H]3OC(=O)[C@H](CC(C)C)N(C)C(=O)[C@@H](C)OC(=O)[C@H](CC(C)C)N(C)C(=O)[C@@H](Cc4ccc(Cn5cc(OCOC)cn5)cc4)OC(=O)[C@H](CC(C)C)N(C)C(=O)[C@@H](C)OC(=O)[C@H](CC(C)C)N(C)C3=O)cc2)c1 [Example 1b-201, (3S,6R,9S,12R,15S,18R,21S,24R)-3,9,15,21-tetraisobutyl-6,18-bis[[4-[[4-(methoxymethoxy)pyrazol-1-yl]methyl]phenyl]methyl]-4, 10,12,16,22,24-hexamethyl-1,7,13,19-tetraoxa-4,10,16,22-tetrazacyclotetracosane-2,5,8,11,14,17,20,23-octaone]	0.001 to 0.01 µM	1 to 10 µM	0.001 to 0.01 µM
COCCOc1cnn(Cc2ccc(C[C@H]3OC(=O)[C@H](CC(C)C)N(C)C(=O)[C@@H](C)OC(=O)[C@H](CC(C)C)N(C)C(=O)[C@@H](Cc4ccc(Cn5cc(OCCOC)cn5)cc4)OC(=O)[C@H](CC(C)C)N(C)C(=O)[C@@H](C)OC(=O)[C@H](CC(C)C)N(C)C3=O)cc2)c1 [Example 1b-203, (3S,6R,9S,12R,15S,18R,21S,24R)-3,9,15,21-tetraisobutyl-6,18-bis[[4-[[4-(2-methoxyethoxy)pyrazol-1-yl]methyl]phenyl]methyl]-4,10,12,16,22,24-hexamethyl-1,7,13,19-tetraoxa-4,10,16,22-tetrazacyclotetracosane-2,5,8,11,14,17,20,23-octaone]	0.001 to 0.01 µM	10 to 100 µM	0.001 to 0.01 µM
CC(C)C[C@H]1C(=O)O[C@H](Cc2ccc(Cn3nccc3CC3CC3)cc2)C(=O)N(C)[C@@H](CC(C)C)C(=O)O[C@H](C)C(=O)N(C)[C@@H](CC(C)C)C(=O)O[C@H](Cc2ccc(Cn3nccc3CC3CC3)cc2)C(=O)N(C)[C@@H](CC(C)C)C(=O)O[C@H](C)C(=O)N1C [Example 1b-206, (3S,6R,9S,12R,15S,18R,21S,24R)-6,18-bis(4-((5-(cyclopropylmethyl)-1H-pyrazol-1-yl)methyl)benzyl)-3,9,15,21-tetraisobutyl-4,10,12,16,22,24-hexamethyl-1,7,13,19-tetraoxa-4,10,16,22-tetraazacyclotetracosan-2,5,8,11,14,17,20,23-octaone]	0.0001 to 0.001 µM	≤ 1 µM	0.01 to 0.1 µM
Cc1ncc(-c2ccnn2Cc2ccc(C[C@H]3OC(=O)[C@H](CC(C)C)N(C)C(=O)[C@@H](C)OC(=O)[C@H](CC(C)C)N(C)C(=O)[C@@H](Cc4ccc(Cn5nccc5-c5cnc(C)nc5)cc4)OC(=O)[C@H](CC(C)C)N(C)C(=O)[C@@H](C)OC(=O)[C@H](CC(C)C)N(C)C3=O)cc2)cn1 [Example 1b-207, (3S,6R,9S,12R,15S,18R,21S,24R)-3,9,15,21-tetraisobutyl-4,6,10,16,18,22-hexamethyl-12,24-bis(4-((5-(2-methylpyrimidin-5-yl)-1H-pyrazol-1-yl)methyl)benzyl)-1,7,13,19-tetraoxa-4,10,16,22-tetraazacyclotetracosan-2,5,8,11,14,17,20,23-octaone]	0.001 to 0.01 µM	1 to 10 µM	0.001 to 0.01 µM
CCC(C)c1ccnn1Cc1ccc(C[C@H]2OC(=O)[C@H](CC(C)C)N(C)C(=O)[C@@H](C)OC(=O)[C@H](CC(C)C)N(C)C(=O)[C@@H](Cc3ccc(Cn4nccc4C(C)CC)cc3)OC(=O)[C@H](CC(C)C)N(C)C(=O)[C@@H](C)OC(=O)[C@H](CC(C)C)N(C)C2=O)cc1 (stereo partly drawn) [Example 1b-210, (3S,6R,9S,12R,15S,18R,21S,24R)-6,18-bis(4-((5-(sec-butyl)-1H-pyrazol-1-yl)methyl)benzyl)-3,9,15,21-tetraisobutyl-4,10,12,16,22,24-hexamethyl-1,7,13,19-tetraoxa-4,10,16,22-tetraazacyclotetracosan-2,5,8,11,14,17,20,23-octaone]	0.0001 to 0.001 µM	1 to 10 µM	0.01 to 0.1 µM
CC(C)C[C@H]1C(=O)O[C@H](Cc2ccc(Cn3nccc3C3(F)CC3)cc2)C(=O)N(C)[C@@H](CC(C)C)C(=O)O[C@H](C)C(=O)N(C)[C@@H](CC(C)C)C(=O)O[C@H](Cc2ccc(Cn3nccc3C3(F)CC3)cc2)C(=O)N(C)[C@@H](CC(C)C)C(=O)O[C@H](C)C(=O)N1C [Example 1b-215, (3S,6R,9S,12R,15S,18R,21S,24R)-6,18-bis(4-((5-(1-fluorocyclopropyl)-1H-pyrazol-1-yl)methyl)benzyl)-3,9,15,21-tetraisobutyl-4,10,12,16,22,24-hexamethyl-1,7,13,19-tetraoxa-4,10,16,22-tetraazacyclotetracosan-2,5,8,11,14,17,20,23-octaone]	0.0001 to 0.001 µM	≤ 1 µM	0.001 to 0.01 µM
CC(C)C[C@H]1C(=O)O[C@H](Cc2ccc(Cn3nccc3C3CC3(F)F)cc2)C(=O)N(C)[C@@H](CC(C)C)C(=O)O[C@H](C)C(=O)N(C)[C@@H](CC(C)C)C(=O)O[C@H](Cc2ccc(Cn3nccc3C3CC3(F)F)cc2)C(=O)N(C)[C@@H](CC(C)C)C(=O)O[C@H](C)C(=O)N1C (stereo partly drawn) [Example 1b-216, (3S,6R,9S,12R,15S,18R,21S,24R)-6,18-bis(4-((5-(2,2-difluorocyclopropyl)-1H-pyrazol-1-yl)methyl)benzyl)-3,9,15,21-tetraisobutyl-4,10,12,16,22,24-hexamethyl-1,7,13,19-tetraoxa-4,10,16,22-tetraazacyclotetracosan-2,5,8,11,14,17,20,23-octaone]	≤ 0.0001 µM	≤ 1 µM	0.001 to 0.01 µM
CC(C)C[C@H]1C(=O)O[C@H](Cc2ccc(Cn3nccc3C3(Cl)CC3)cc2)C(=O)N(C)[C@@H](CC(C)C)C(=O)O[C@H](C)C(=O)N(C)[C@@H](CC(C)C)C(=O)O[C@H](Cc2ccc(Cn3nccc3C3(Cl)CC3)cc2)C(=O)N(C)[C@@H](CC(C)C)C(=O)O[C@H](C)C(=O)N1C [Example 1b-217, (3S,6R,9S,12R,15S,18R,21S,24R)-6,18-bis(4-((5-(1-chlorocyclopropyl)-1H-pyrazol-1-yl)methyl)benzyl)-3,9,15,21-tetraisobutyl-4,10,12,16,22,24-hexamethyl-1,7,13,19-tetraoxa-4,10,16,22-tetraazacyclotetracosan-2,5,8,11,14,17,20,23-octaone]	0.0001 to 0.001 µM	≤ 1 µM	0.01 to 0.1 µM
